In patent US7871978B2, “Bone tropic peptides” (University of Virginia Patent Foundation, priority 2004, dated 2011):

What was measured:
[1] = tested on: bone and bone marrow; assay: In vivo biopanning with 12-mer peptide phage display library; set-up: species or system BALB/c mice; settings: for PERCENT FREQUENCY: phage eluted from bone and bone marrow; for PHAGE SEQUENCE FREQUENCY (number of times the sequence was found in a group of plaques): phage eluted from bone and bone marrow after repeated rounds
Text: The Ph.D.-12 Phage Display Peptide Library Kit (New England Biolabs, Beverly, Mass.) used in this study is based on a combinatorial library of random peptide 12-mers fused to a minor coat protein (pIII). […] The peptide is followed by a short spacer of four amino acid residues, the first three residues of which are glycine and the fourth of which is serine, and then the wild-type III sequence. The library consists of approximately 2.7×10^9 electroporated sequences, amplified once to yield approximately 55 copies of each sequence.
For in vivo biopanning, BALB/c mice 8 weeks of age were injected 3.4×10^10 pfu of phage into the heart. The animals were euthanized after 5 minutes, and the tissues (bone, bone marrow, kidney, liver, and spleen) were collected for analysis. The bound phage was eluted according the manufacturer's instructions. The eluted phage was titered, amplified, purified, and injected again at the same concentration.
The frequency of each peptide in bone and bone marrow was compared with its location in other tissues such as liver, kidney, lung, spleen, and brain. Thirteen unique peptide sequences eluted from bone and marrow were identified were identified by sequencing phage DNA. The peptides were synthesized using the polystyrene solid support on a Protein Technologies Symphony Multiple Channel Synthesizer.

[2] = tested on: prostate cancer cells (CaP); assay: Prostate cancer (CaP) cell adhesion to BMEC, cell line not distinguished; assay type: cell-based; settings: 50 μM and 100 μM tested
Experimental: (§1) FIG. 8 is a graphic representation of the effects of various peptides on altering cellular adhesion to BMEC cells in vitro. LNCaP cells were compared directly to C4-2 cells for the ability of specific phage-derived peptides to alter cellular adhesion to BMEC cells in vitro. Adhesion was measured at […]. C=control (no peptide). The ordinate represents percent of acid precipitable counts bound and the abscissa indicated the cells treated and the peptides used.
(§2) The phage-derived bone-targeting peptides isolated by biopanning were tested for their ability to alter the adhesion of prostate cancer cells to a human bone marrow endothelial cell line (see FIG. 8). In this assay, LNCaP cells were compared directly to the more metastatic, bone colonizing derivative, C4-2.
This observation will be examined further and exploited by the aims of this proposal to identify the binding partners of nucleolin in prostate cancer cells as well as to investigate bone tropic peptides as potential inhibitors of prostate cancer metastasis.

[3] = tested on: C4-2 cells; assay: Prostate cancer cell adhesion to BMEC: C4-2; assay type: cell-based; settings: FIG. 8; preliminary results
Experimental: as §1, §2

[4] = tested on: bovine aortic endothelial cells; assay: Effect of peptides on adherent bovine aortic endothelial cells on fibronectin or collagen; assay type: cell-based; settings: 0.1M biotinylated peptide, 1 hour; cells adhered four hours on fibronectin or collagen
Experimental: Peptides from the phage display project were added to bovine aortic endothelial cells in culture. The endothelial cells had adhered to a surface coated with collagen or with fibronectin.
Experiment 1: Bovine aortic endothelial cells were plated on glass slides that were coated either fibronectin or collagen. The cell density was 5,000 cells/well. After the cells adhered for four hours, 0.1M of biotinylated peptide was added to each well. The following peptides were used: L1, L2, L5, L6, L7, L12, L13, L14, L19, R1, R3, and R8.
To perform this experiment, the media was removed and the cells were rinsed with 1×PBS plus 1% BSA three times. Peptides were diluted in 1×PBS plus 1% BSA, added to cells and incubated for 1 hour. The cells were rinsed three times with 1% BSA in PBS, and fixed with 2% parafomaldehyde. Aldehyde groups were blocked with 0.2 M HCl-glycine in PBS, the cells were rinsed three times with 1% BSA in PBS and ExtrAvidin-FITC (1:200 dilution) was added and incubated overnight at 4° C. The cells were rinsed three times with 1% BSA in PBS. The chambers and the gasket were removed from each slide, Vectashield was added, covered and viewed on a Nikon microscope. Images were acquired using a Coolsnap digital camera and Metavue software. […]
Experiment 3: The cells were adherent for about 6 hours and peptides at various concentrations were added to the cells. The concentrations of each of the peptides used in this experiment were: 0.1M, 0.01M, 0.001M and 0.0001M biotinylated peptide. The following peptides were tested: L1, L5, L6, L7, L13, L14, R1, R3, R8, DIP1 and PBS control (SEQ ID NOs:1, 3, 4, 5, 8, 9, 11, 13, 14, and 29).

[5] = tested on: bone and marrow tissue sections (mouse femur, rib); assay: Biotinylated peptide binding to bone/marrow tissue sections, Avidin-FITC fluorescence; set-up: key to Localization of peptide binding: Bone/Marrow (tissue sections): ✓: Check marks indicate positive binding observed with FITC; −: a dash indicates a negative result
Experimental: Methods: Four-week old Swiss Webster mice were euthanized; the femurs were excised and decalcified in 0.25M EDTA in PBS solution for 5 days, and washed in PBS for 24 hours. The femoral shafts were obtained by cutting off the proximal and distal ends of the femur. The femoral shafts were placed in Tissue-Tek O.C.T. Compound (Sukura Finetek, Torrance, Calif.) and frozen at −20° C. overnight. Sections were cut at 10 μm serially with a cryomicrotome, rinsed with 1% BSA in PBS three times. To block non-specific reaction sections were incubated with Avidin/Biotin Blocking Kit (Vector Laboratories, Inc. Burlingame, Calif.) according to the manufacturer's instructions. Following another rinse with PBS, 150 μl 10 mM solution of each biotinylated peptide (L1, L2, L7, R1, R8) was added to the slides and incubated for 1 hour at room temperature. In negative controls, only PBS was added. After rewashes with 1% BSA, 150 μl of 1:50,000 dilution of Avidin-FITC was added to each slide and incubated overnight at 4° C.
The sections were washed with 1% BSA in PBS and mounted with Vectashield (Vector Laboratories Inc., Burlingame, Calif.). Fluorescence was visualized using a Nikon eclipse E600 microscope (Nikon, Melville, N.Y.) equipped with a 535 nm wavelength fluorescein filter. Images were obtained using a Sony DKC-5000 digital camera (Sony Electronics Inc.) and processed with Adobe Photoshop software (Adobe Systems Incorporated, San Jose, Calif.).
(§3) For localization of peptide binding to cells and tissue sections, biotinylated peptides were synthesized. Fluorescein-isothiocyanate (FITC) labeled Avidin was used to localize the peptides on cells in culture and in tissue sections in vitro by epiluminescence microscopy. In addition, the biotinylated peptides were detected at concentrations as low as 1 μM in slot blots.
Cryosections of decalcified femurs harvested from 4 week BALB/c mice were incubated with biotinylated peptide and Avidin-FITC. […] The distribution of fluorescence throughout the marrow was uneven. […] In control slides incubated with PBS without peptide, none of the cells could be detected by fluorescence (not shown). […]

[6] = tested on: Unicortical femoral defects; assay: Peptide-mediated osteogenesis in cortical bone defects (Example 8); assay type: in vivo, Fisher 344 rats; settings: 100 mM peptide in gelfoam, two weeks postoperatively; for Effectiveness at stimulating osteogenesis and cortical bone repair: versus gelfoam+PBS
Experimental: In an in vivo study, all 13 peptides at a concentration of 100 mM were tested for their ability to potentiate osteogenesis. A gelfoam cylinder 1.5 mm in diameter 2 mm in length was used as carrier for the peptides. Unicortical femoral defects 1.5 mm in diameter were created bilaterally in Fisher 344 rats; the left femoral defect was filled with gelfoam+PBS (Control), and the right femur with gelfoam+peptide. The samples were harvested and examined two weeks postoperatively. To examine the effect of peptide concentration on cortical bone regeneration, peptide L7 (SEQ ID NO:5) was used at 1, 5, and 20 mM. […] The time course of cortical bone repair with 20 mM L7 was examined at 5, 10, 15, and 20 days.

[7] = tested on: LNCaP cells; assay: Prostate cancer cell adhesion to BMEC: LNCaP; assay type: cell-based; settings: FIG. 8; preliminary results
Experimental: as §1, §2

[8] = tested on: Membrane and cytosol fractions from bovine aortic endothelial cells; assay: Affinity chromatography of BAEC fractions on immobilized peptide; assay type: binding
Experimental: Membrane and cytosol fractions from human bone marrow endothelial cells and bovine aortic endothelial cells were prepared and used to identify the components from within these fractions that bind to the peptides using affinity chromatography). […] Cell surface nucleolin is present at higher concentrations in actively dividing cells and is down regulated in cells when they become quiescent. Nucleolin is the apparent cell surface receptor of E-coli intimin-gamma. Cell bound intimin has been proposed to trigger a host cell response similar to the extension of filipodia when cells bind to laminin. […] Table 3 provides a summary of peptide-binding partners (putative receptors) identified by affinity chromatography of cell lysates.

[9] = tested on: bovine aortic endothelial cells (BAEC); assay: Peptide binding to BAEC in culture (Avidin-FITC); set-up: key: ✓: Check marks indicate positive binding observed with FITC; −: a dash indicates a negative result
Experimental: as §3
(§4) Bone marrow cells isolated from mouse femur were lifted with ethylenediaminetetraacetic acid (EDTA) and trypsin, resuspended, and allowed to attach on fibronectin-coated chamber slides for Avidin-FITC staining. […] The D1 cell is a multipotential mesenchymal stem-like line that was isolated from bone marrow and shown to have the characteristics of osteoprogenitor cells. This cell line has been well established and used successfully in several in vitro and in vivo studies in our laboratory. Peptide binding to human bone marrow endothelial cells (HBME) and bovine aortic endothelial cells (BAEC) in culture was also tested using the same procedure.

[10] = tested on: Bone marrow cells isolated from mouse femur; assay: Peptide binding to bone marrow cells in culture (Avidin-FITC); set-up: key to Localization of peptide binding: Marrow (cells in culture): ✓: Check marks indicate positive binding observed with FITC; −: a dash indicates a negative result
Experimental: as §3, §4

[11] = tested on: human bone marrow endothelial cells (HBME); assay: Peptide binding to HBME cells in culture (Avidin-FITC); set-up: key: ✓: Check marks indicate positive binding observed with FITC; −: a dash indicates a negative result
Experimental: as §3, §4

[12] = BALB/c mouse femur cryosections, biotinylated peptide
[13] = Swiss Webster mouse femur cryosections, 10 mM biotinylated peptide

Row | Binding to rib and long bone growth plate sections ([5]; biotinylated peptides, 1/50,000 dilution of Avidin-FITC) | Localization of peptide binding: Bone/Marrow (tissue sections) ([5]; FITC) | Substance | PERCENT FREQUENCY [1] | PHAGE SEQUENCE FREQUENCY (number of times the sequence was found in a group of plaques) [1] | Concentrations at which peptide inhibits prostate cancer cell adhesion to BMEC [2] | Effect on adhesion of C4-2 cells to BMEC [3] | Effect on adherent BAEC (Experiment 1) [4] | Effectiveness at stimulating osteogenesis and cortical bone repair [6] | Effect on adhesion of LNCaP cells to BMEC [7] | Histological appearance of repair tissue in the defect [6] | Binding partner from BAEC lysates ([8]; biotinylated peptide immobilized on avidin-agarose) | Identification of binding partners by affinity chromatography: BAEC ([8]; cell lysates) | Localization of peptide binding: BAEC [9] | Localization of peptide binding: Marrow (cells in culture) ([10]; FITC) | Binding to adherent cells from bone marrow blowouts ([10]; fibronectin-coated chamber slides, Avidin-FITC staining) | Cell shape preferentially recognized by peptide [5, 12] | Extent of marrow cells detected by fluorescence [5, 12] | Cell shape preferentially recognized by peptide [5, 13] | Extent of marrow cells detected by fluorescence [5, 13] | Localization of peptide binding: HBME [11]
1 | no staining |  | ALA-THR-TRP-SER-HIS-HIS-LEU-SER-SER-ALA-GLY-LEU-GLY-GLY-GLY-SER (ATWSHHLSSAGLGGGS; listed as Homo sapiens) [Peptide R3] | 34.5% | 10/29 | at 100 μM only | dose-dependent inhibition of CaP cell invasion for both cell lines | the cells had lifted completely and most of the cells disappeared from the surface of the slides, leaving a lot of cell debris | most effective at stimulating osteogenesis and cortical bone repair | dose-dependent inhibition of CaP cell invasion for both cell lines |  |  |  |  |  |  |  |  |  |  | 
2 |  |  | ASP-SER-SER-ASN-PRO-ILE-PHE-TRP-ARG-PRO-SER-SER-GLY-GLY-GLY-SER (DSSNPIFWRPSSGGGS; listed as Homo sapiens) [Peptide L19] | 16.7% | 5/30 |  | leaving the adhesion of the C4-2 cell line unaffected | no effect, with results similar to PBS | virtually no stimulatory effect on osteogenesis | strongly inhibited the less aggressive LNCaP cell | while some ossification and cortical bone regeneration has occurred, considerable amounts of gelfoam remains in the defect |  |  |  |  |  |  |  |  |  | 
3 |  | ✓ | SER-TYR-SER-GLN-MET-ASP-PRO-PRO-ARG-SER-LEU-PRO-GLY-GLY-GLY-SER (SYSQMDPPRSLPGGGS; listed as Homo sapiens) [Peptide R8] | 24.1% | 7/29 |  |  |  | most effective at stimulating osteogenesis and cortical bone repair |  |  | vimentin was found to bind | ✓Vimentin | ✓ | ✓ | showed detectable binding | recognized the round cells preferentially | did not detect as many cells | recognized the round cells preferentially | did not detect as many cells | ✓
